doi:10.1101/2024.01.31.578122v1 (biorxiv, 2024)

What was measured:
[1] = target: TRIM21 PRYSPRY (PRYSPRY domain of TRIM21) (Homo sapiens, UniProt P19474, D355A); assay: isothermal titration calorimetry; format: binding
[2] = target: TRIM21 PRYSPRY (PRYSPRY domain of TRIM21) (Homo sapiens, UniProt P19474); assay: microscale thermophoresis, RED-NHS labelled protein; format: binding
Sequence of TRIM21 PRYSPRY (PRYSPRY domain of TRIM21) (Homo sapiens, UniProt P19474) (P19474 287-465): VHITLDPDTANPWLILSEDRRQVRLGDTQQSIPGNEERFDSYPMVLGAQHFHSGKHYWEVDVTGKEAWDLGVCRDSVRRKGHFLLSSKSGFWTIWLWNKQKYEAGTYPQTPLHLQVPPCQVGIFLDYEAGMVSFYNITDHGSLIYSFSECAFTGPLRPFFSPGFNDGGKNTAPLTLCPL

Sequence of TRIM21 PRYSPRY (PRYSPRY domain of TRIM21) (Homo sapiens, UniProt P19474, D355A) (P19474 287-465 D355A): as the sequence (P19474 287-465) above, with D69A counted along it

Structure (SMILES) | Kd [1] [µM] | Kd [2] [µM]
CC(=O)c1ccc2c(c1)N(CCCN(C)C)c1ccccc1S2 [acepromazine] | 5.66 | 44.6
C[C@@H](O)c1ccc2c(c1)N(CCCN(C)C)c1ccccc1S2 [(R)-ACE-OH] | 9.11 | 
C[C@H](O)c1ccc2c(c1)N(CCCN(C)C)c1ccccc1S2 [(S)-hydroxyl-acepromazine] | 17.9 | 237
